For five compounds, IC50 results are on record in paper PMC6236447 (Molecules : A Journal of Synthetic Chemistry and Natural …, 2001).

In one experiment the target is T1, hY2-receptor (Homo sapiens, UniProt P49146).
T1 sequence (P49146 1-381): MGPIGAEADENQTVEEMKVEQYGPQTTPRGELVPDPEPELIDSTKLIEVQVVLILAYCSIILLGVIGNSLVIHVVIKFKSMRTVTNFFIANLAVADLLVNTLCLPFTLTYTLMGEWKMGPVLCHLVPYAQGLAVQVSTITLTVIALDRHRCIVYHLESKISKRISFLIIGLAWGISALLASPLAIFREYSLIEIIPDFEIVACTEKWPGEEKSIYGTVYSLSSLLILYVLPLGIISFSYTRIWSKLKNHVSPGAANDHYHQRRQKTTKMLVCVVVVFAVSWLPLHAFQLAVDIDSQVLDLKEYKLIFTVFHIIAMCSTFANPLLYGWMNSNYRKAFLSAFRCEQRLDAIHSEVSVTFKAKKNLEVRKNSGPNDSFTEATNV
Briefly: Radioligand displacement binding on SMS-KAN membranes.

The target in a further experiment is T2, hY1-receptor (Homo sapiens, UniProt P25929).
T2 sequence (P25929 1-384): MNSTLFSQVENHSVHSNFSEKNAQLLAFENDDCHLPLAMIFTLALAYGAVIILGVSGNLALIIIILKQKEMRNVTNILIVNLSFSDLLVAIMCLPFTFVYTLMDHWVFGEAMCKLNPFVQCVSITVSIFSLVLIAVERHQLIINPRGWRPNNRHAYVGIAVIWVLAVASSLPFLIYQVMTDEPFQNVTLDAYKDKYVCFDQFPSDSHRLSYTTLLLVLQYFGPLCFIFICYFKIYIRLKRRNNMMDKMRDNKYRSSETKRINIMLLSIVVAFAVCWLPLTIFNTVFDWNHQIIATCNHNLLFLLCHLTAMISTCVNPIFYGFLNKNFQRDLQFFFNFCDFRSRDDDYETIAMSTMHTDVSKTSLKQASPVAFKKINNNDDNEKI
Briefly: Radioligand displacement binding on SK-N-MC membranes. On the technique in general: Displacement assays read how much labelled ligand stays bound in the presence of the test substance.

Another experiment addresses hY4-receptor (Homo sapiens, UniProt P50391). Briefly: Radioligand displacement binding on transfected BHK membranes.
The next experiment deals with T3, hY5-receptor (Homo sapiens, UniProt Q15761).
T3 sequence (Q15761 1-445): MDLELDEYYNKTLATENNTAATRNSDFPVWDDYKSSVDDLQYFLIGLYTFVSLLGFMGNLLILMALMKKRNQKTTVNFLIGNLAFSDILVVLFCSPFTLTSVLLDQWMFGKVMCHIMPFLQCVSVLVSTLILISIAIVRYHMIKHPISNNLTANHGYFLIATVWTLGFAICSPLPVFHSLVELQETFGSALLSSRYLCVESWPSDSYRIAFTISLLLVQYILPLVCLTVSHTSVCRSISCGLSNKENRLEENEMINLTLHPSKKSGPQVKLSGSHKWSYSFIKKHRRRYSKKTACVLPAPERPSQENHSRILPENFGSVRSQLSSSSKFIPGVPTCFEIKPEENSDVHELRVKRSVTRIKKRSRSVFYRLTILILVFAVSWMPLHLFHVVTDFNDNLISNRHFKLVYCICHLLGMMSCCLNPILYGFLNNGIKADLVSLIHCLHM
The description is as above.

SMILES strings stand for the structures. Where a SMILES comes first, the peptide text is derived from it. [ ]: non-standard residue; d: D form. Ahx = NCCCCCC(=O)O A value given as a limit tells only on which side of the number the result lay.

Sequence of hY4-receptor (P50391 whole entry): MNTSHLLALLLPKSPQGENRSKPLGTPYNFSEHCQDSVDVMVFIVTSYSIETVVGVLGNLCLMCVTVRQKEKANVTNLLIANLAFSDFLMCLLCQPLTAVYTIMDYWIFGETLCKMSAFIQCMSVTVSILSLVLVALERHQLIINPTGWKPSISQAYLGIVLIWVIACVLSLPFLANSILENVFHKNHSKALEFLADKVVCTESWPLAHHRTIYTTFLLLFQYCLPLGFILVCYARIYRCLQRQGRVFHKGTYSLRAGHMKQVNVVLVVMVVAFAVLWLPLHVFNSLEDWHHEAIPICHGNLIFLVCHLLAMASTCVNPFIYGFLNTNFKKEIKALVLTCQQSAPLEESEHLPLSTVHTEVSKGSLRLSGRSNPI

What is called IC50 is the concentration that inhibits the measured activity by half. Low values mean inhibition by little substance, high ones a need for much substance. Regarding `CC[C@H](C)[C@H](NC(=O)[C@H](Cc1ccc(O)cc1)NC(=O)[C@H](CCCNC(=N)N)NC(=O)[C@H](CCCNC(=N)N)NC(=O)[C@H](CC(C)C)NC(=O)[C@H](CC(=O)O)NC(=O)[C@H](C)NC(=O)[C@H](C)NC(=O)CCCCCNC(=O)[C@H](CCC(=O)O)NC(=O)[C@H](CC(C)C)NC(=O)[C@@H]1CCCN1C(=O)[C@H](C)N)C(=O)N[C@@H](CC(N)=O)C(=O)N[C@@H](CCSC)C(=O)N[C@@H](CC(C)C)C(=O)N[C@H](C(=O)N[C@@H](CCCNC(=N)N)C(=O)N1CCC[C@H]1C(=O)N[C@@H](CCCNC(=N)N)C(=O)N[C@@H](Cc1ccc(O)cc1)C(N)=O)[C@@H](C)O` [[Ahx^5-20]-hPP] (H-APLE[Ahx]AADLRRYINMLTRPRY-NH2), the IC50 is above 1000 nM at hY2-receptor, above 1500 nM at hY1-receptor, 216 nM at hY4-receptor and above 7000 nM at hY5-receptor.
For the compound `CC[C@H](C)[C@H](NC(=O)[C@H](Cc1ccc(O)cc1)NC(=O)[C@H](Cc1c[nH]cn1)NC(=O)[C@H](CCCNC(=N)N)NC(=O)CCCCCNC(=O)[C@H](CCCCN)NC(=O)[C@H](CO)NC(=O)[C@@H]1CCCN1C(=O)[C@@H](N)Cc1ccc(O)cc1)C(=O)N[C@@H](CC(N)=O)C(=O)N[C@@H](CC(C)C)C(=O)N[C@H](C(=O)N[C@H](C(=O)N[C@@H](CCCNC(=N)N)C(=O)N1CCC[C@H]1C(=O)N[C@@H](CCCNC(=N)N)C(=O)N[C@@H](Cc1ccc(O)cc1)C(N)=O)[C@@H](C)O)[C@@H](C)CC` [[Ahx^5-24, ^P34]-NPY] (H-YPSK[Ahx]RHYINLITRPRY-NH2), the results for the IC50 at hY4-receptor and at hY5-receptor were 514 nM and above 10000 nM, respectively.
With `CC[C@H](C)[C@H](NC(=O)[C@H](Cc1ccc(O)cc1)NC(=O)[C@H](Cc1cnc[nH]1)NC(=O)[C@H](CCCNC(=N)N)NC(=O)CCCCCNC(=O)[C@H](CCCCN)NC(=O)[C@H](CO)NC(=O)[C@@H]1CCCN1C(=O)[C@@H](N)Cc1ccc(O)cc1)C(=O)N[C@@H](CC(N)=O)C(=O)N[C@@H](CC(C)C)C(=O)N[C@H](C(=O)N[C@H](C(=O)N[C@@H](CCCNC(=N)N)C(=O)N[C@@H](CCC(N)=O)C(=O)N[C@@H](CCCNC(=N)N)C(=O)N[C@@H](Cc1ccc(O)cc1)C(N)=O)[C@@H](C)O)[C@@H](C)CC` [[Ahx^5-24]-NPY] (H-YPSK[Ahx]RHYINLITRQRY-NH2), the concentration for half-maximal inhibition (IC50) at hY2-receptor is 1.4 nM; at hY1-receptor, above 1000 nM; on hY4-receptor it was 600 nM; on hY5-receptor, 795 nM.
As for `CC[C@H](C)[C@H](NC(=O)[C@H](Cc1ccc(O)cc1)NC(=O)[C@H](Cc1c[nH]cn1)NC(=O)[C@H](CCCNC(=N)N)NC(=O)[C@H](CC(C)C)NC(=O)[C@H](C)NC(=O)[C@H](CO)NC(=O)[C@H](Cc1ccc(O)cc1)NC(=O)CCCCCNC(=O)[C@H](CC(N)=O)NC(=O)[C@H](CC(=O)O)NC(=O)[C@@H]1CCCN1C(=O)[C@H](CCCCN)NC(=O)[C@H](CO)NC(=O)[C@@H]1CCCN1C(=O)[C@@H](N)Cc1ccc(O)cc1)C(=O)N[C@@H](CC(N)=O)C(=O)N[C@@H](CC(C)C)C(=O)N[C@H](C(=O)N[C@H](C(=O)N[C@@H](CCCNC(=N)N)C(=O)N[C@@H](CCC(N)=O)C(=O)N[C@@H](CCCNC(=N)N)C(=O)N[C@@H](Cc1ccc(O)cc1)C(N)=O)[C@@H](C)O)[C@@H](C)CC` [[Ahx^8-20]-NPY] (H-YPSKPDN[Ahx]YSALRHYINLITRQRY-NH2), the concentration for half-maximal inhibition (IC50) on hY4-receptor turned out to be 67 nM; on hY5-receptor it was 31 nM.
Regarding `CC[C@H](C)[C@H](NC(=O)[C@H](Cc1ccc(O)cc1)NC(=O)[C@H](CCCNC(=N)N)NC(=O)[C@H](CCCNC(=N)N)NC(=O)CCCCCNC(=O)[C@H](CCC(=O)O)NC(=O)[C@H](CC(C)C)NC(=O)[C@@H]1CCCN1C(=O)[C@H](C)N)C(=O)N[C@@H](CC(N)=O)C(=O)N[C@@H](CCSC)C(=O)N[C@@H](CC(C)C)C(=O)N[C@H](C(=O)N[C@@H](CCCNC(=N)N)C(=O)N1CCC[C@H]1C(=O)N[C@@H](CCCNC(=N)N)C(=O)N[C@@H](Cc1ccc(O)cc1)C(N)=O)[C@@H](C)O` [[Ahx^5-24]-hPP] (H-APLE[Ahx]RRYINMLTRPRY-NH2), the IC50 on hY2-receptor was above 1000 nM; on hY1-receptor, above 500 nM; on hY4-receptor, 144 nM; at hY5-receptor, above 1000 nM.
